From patent US4929741A, “Propiolophenone derivatives” (Hoffman-La Roche Inc., priority 1987, dated 1990) come the findings set out here.

Data set [1] concerns lesions of the mucous membrane of the stomach. In words: Ethanol test (mucosa-protective activity). To be noted: Rattus norvegicus; male rats, oral 30 min before absolute ethanol; dosage reducing number of lesions by 50%; read-out: Ethanol Test ID 50. The class given is in vivo. The method, then:
The experimental procedure described hereinafter was used to determine the mucosa-protective property:
The oral administration of absolute ethanol to male rats in a dosage of 1 ml per rat leads within 1 hour to bloody lesions of the mucous membrane of the stomach. Various dosages of the substances to be tested (suspended in 0.125% carboxymethycellulose) or of the vehicle alone (control) are administered to the rats orally (1 ml per rat) 30 minutes prior to the treatment with ethanol. One hour after the administration of the ethanol the animals are killed, their stomachs are investigated for the presence of lesions and the number and the total dimension of such lesions are determined. The ID50 is that dosage of a test substance which reduces by 50% the number of lesions in comparison to the control group. […]

Data set [2] can be described thus: Acute toxicity, single oral administration. The note with it: mouse, in vivo, read-out: Toxicity LD 50.
The test system of a further data set is gastric acid secretion. In words: Gastric acid secretion-inhibiting activity (pylorus ligation, Shay et al.). The class given is in vivo. The note with it: Rattus norvegicus; male pylorus-ligated rats, intraduodenal, 5 h; 50% decrease of the secretion; read-out: Gastric acid secretion-inhibition, ID 50. The method, then: The test procedure described hereinafter was used to determine the gastric acid secretion-inhibiting activity:
The pylorus of male rats is ligated under slight ether narcosis in accordance with Shay et al., Gastroenterology 5. 43 (1945). The substances to be tested, suspended in 0.5% carboxymethylcellulose, are administered intraduodenally. Control animals are treated only with the vehicle. Five hours after the ligation the animals are killed, the volume and acidity of their gastric juice are determined and the values obtained are compared with those of control animals. The ID50 is that dosage of a test substance which brings about a 50% decrease of the secretion in comparison to the control animals. In the following Table there are given for a series of representative compounds of formula I and for two compounds of formula II the results of the testing with respect to their mucosa-protective activity ("ethanol test") and to their gastric acid secretion-inhibiting activity. Moreover, this Table contains data concerning the acute toxicity (LD50 in the case of single oral administration to mice).

Where [3] appears, read: single oral administration to mice.

Like-named read-outs stand apart in the source and are kept apart here.

With `CCOC(C)OCC#CC(=O)c1ccc(F)cc1` (stereo not shown) [R, 4-(1-ethoxyethoxy)-1-(4-fluorophenyl)-2-butyn-1-one], in data set [1], the ED50 worked out at 1.4 mg/kg. Also, the LD50 in data set [2] (setting [3]) is 80 to 156 mg/kg.
On the same counts, the results for `COCCOCCOC(=O)C#CC(=O)c1ccc(OC)cc1` [G, 2-(2-methoxyethoxy)ethyl 3-(4-methoxybenzoyl)propiolate] are 2.1 mg/kg and 1000 to 2000 mg/kg.
Take `O=C(C#CCO)c1ccc(F)cc1` [P, 1-(4-fluorophenyl)-4-hydroxy-2-butyn-1-one]: the ED50 in data set [1] turned out to be 0.9 mg/kg. In data set [2] (setting [3]), the LD50 lay in the range of 80 to 156 mg/kg.
As to `O=C(C#CCO)c1ccc(Cl)cc1` [S, 1-(4-chlorophenyl)-4-hydroxy-2-butyn-1-one], the ED50 in data set [1] amounted to 1.2 mg/kg. Also, the LD50 in data set [2] (setting [3]) is 80 to 156 mg/kg.
Regarding `COc1cc(C(=O)C#CCO)cc(OC)c1OC` [B, 4-hydroxy-1-(3,4,5-trimethoxyphenyl)-2-butyn-1-one], the ED50 in data set [1] turned out to be 1.9 mg/kg; with gastric acid secretion, 18 mg/kg. Besides, the LD50 in data set [2] (setting [3]) lay in the range of 156 to 312 mg/kg.
Turning to `COC(=O)C#CC(O)c1ccc2c(c1)OCO2` (stereo not shown) [Aa, methyl 4-hydroxy-4-[3,4-(methylenedioxy)phenyl]-2-butynoate], the ED50 in data set [1] was found to be 1.4 mg/kg. Also, in data set [2] (setting [3]), the LD50 fell in the range of 312 to 625 mg/kg.
For `COC(=O)C#CC(=O)c1ccc(O)cc1` [E, methyl 3-(4-hydroxybenzoyl)propiolate], in data set [1], the ED50 is 1.2 mg/kg. The LD50 in data set [2] (setting [3]) was 312 to 625 mg/kg.
For the molecule `Cc1ccc(C(=O)C#CCO)cc1` [Q, 4-hydroxy-1-(4-methylphenyl)-2-butyn-1-one], the ED50 in data set [1] stood at 1.5 mg/kg. The LD50 in data set [2] (setting [3]) lay within 80 to 156 mg/kg.
Regarding `O=C(C#CCO)c1ccc2c(c1)OCO2` [U], the ED50 in data set [1] is 1.1 mg/kg. Moreover, the LD50 in data set [2] (po) was 80 to 156 mg/kg.
Consider `COc1ccc(C(=O)C#CCO)c(OC)c1OC` [X, 4-hydroxy-1-(2,3,4-trimethoxyphenyl)-2-butyn-1-one], for which the ED50 in data set [1] was 0.8 mg/kg; in the data set with gastric acid secretion it was 4 mg/kg. The LD50 in data set [2] (setting [3]) fell in the range of 156 to 312 mg/kg.
Consider `COCCOCCOC(=O)C#CC(=O)c1ccc2c(c1)OCO2` [J, 2-(2-methoxyethoxy)ethyl 3-[3,4-(methylenedioxy)-benzoyl]propiolate], for which the ED50 was 2.3 mg/kg in data set [1] and more than 100 mg/kg with gastric acid secretion. In data set [2] (setting [3]), the LD50 was 1250 to 2500 mg/kg.
For the molecule `COc1cc(C(=O)C#CC(=O)O)cc(OC)c1OC` [L, 3-(3,4,5-trimethoxybenzoyl)-propiolic acid], the figures for the ED50 (in data set [1]; in the data set on gastric acid secretion) were 4.1 mg/kg and 56 mg/kg, respectively. In addition, the LD50 in data set [2] (setting [3]) fell in the range of 1000 to 2000 mg/kg.
As to `COc1ccc(C(=O)C#CC(=O)O)cc1` [C, 3-(4-methoxybenzoyl)propiolic acid], the ED50 in data set [1] was 1.4 mg/kg. Moreover, in data set [2] (setting [3]), the LD50 fell in the range of 625 to 1250 mg/kg.
As to `COC(=O)C#CC(=O)c1ccc(OC)c(OC)c1OC` [D, methyl 3-(2,3,4-trimethoxybenzoyl)propiolate], the ED50 in data set [1] turned out to be 2.1 mg/kg. The LD50 in data set [2] (setting [3]) was in the range of 625 to 1250 mg/kg.
Take `COc1ccc(C(=O)C#CC(=O)O)c(OC)c1OC` [K, 3-(2,3,4-trimethoxybenzoyl)-propiolic acid]: the ED50 in data set [1] is 3.4 mg/kg. Besides, the LD50 in data set [2] (setting [3]) was 500 to 1000 mg/kg.
With `COc1cc(C(=O)C#CC(C)O)cc(OC)c1OC` (stereo not shown) [V, 4-hydroxy-1-(3,4,5-trimethoxyphenyl)-2-pentyn-1-one], the ED50 is 1.2 mg/kg in data set [1] and 3.1 mg/kg in the data set on gastric acid secretion. Also, the LD50 in data set [2] (setting [3]) was in the range of 156 to 312 mg/kg.
For `CSc1ccc(C(=O)C#CCO)cc1` [Y, 4 hydroxy-1-[4-(methylthio)phenyl]-2-butyn-1-one], the ED50 in data set [1] came out at 1 mg/kg; in the data set on gastric acid secretion it was 2.7 mg/kg. Also, the LD50 in data set [2] (setting [3]) lay within 156 to 312 mg/kg.
Take `COC(=O)C#CC(=O)c1cc(OC)ccc1OC` [H, methyl 3-(2,5-dimethoxybenzoyl)propiolate]: the ED50 in data set [1] was 2.2 mg/kg. Moreover, in data set [2] (setting [3]), the LD50 is more than 5000 mg/kg.
As to `COCCOCCOC(=O)C#CC(O)c1cc(OC)c(OC)c(OC)c1` (stereo not shown) [Bb, 2-(2-methoxyethoxy)ethyl 4-hydroxy-4-(3,4,5-trimethoxyphenyl)-2-butynoate], the ED50 in data set [1] is 4 mg/kg. Besides, the LD50 in data set [2] (setting [3]) fell in the range of 625 to 1250 mg/kg.
`COc1cc(C(=O)C#CC(=O)N(C)C)cc(OC)c1OC` [O, N,N-dimethyl-3-(3,4,5-trimethoxybenzoyl)propiolamide]: the values for the ED50 (in data set [1]; in the data set with gastric acid secretion) were 2.8 mg/kg and 28 mg/kg, respectively. Also, the LD50 in data set [2] (setting [3]) was in the range of 312 to 625 mg/kg.
As to `COc1ccc(OC)c(C(=O)C#CC(=O)O)c1` [I, 3-(2,5-dimethoxybenzoyl)propiolic acid], in data set [1], the ED50 came out at 1.9 mg/kg. For the same molecule, the LD50 in data set [2] (setting [3]) was in the range of 625 to 1250 mg/kg.
For `COC(=O)C#CC(=O)c1ccc(F)cc1` [M, methyl 3-(4-fluorobenzoyl)propiolate], in data set [1], the ED50 amounted to 4.2 mg/kg. For the same molecule, the LD50 in data set [2] (setting [3]) lay in the range of 1250 to 2500 mg/kg.
Turning to `COc1ccc(C(=O)C#CCO)cc1` [T, 4-hydroxy-1-(4-methoxyphenyl)-2-butyn-1-one], in data set [1], the ED50 turned out to be 1.2 mg/kg. For the same molecule, the LD50 in data set [2] (setting [3]) was in the range of 40 to 80 mg/kg.
Consider `COC(=O)C#CC(=O)c1cc(OC)c(OC)c(OC)c1` [N, methyl 3-(3,4,5-trimethoxybenzoyl)propiolate], for which the ED50 is 4.2 mg/kg in data set [1] and more than 100 mg/kg in the data set on gastric acid secretion. Moreover, the LD50 in data set [2] (setting [3]) was more than 5000 mg/kg.
Regarding `COCCOCCOC(=O)C#CC(=O)c1cc(OC)c(OC)c(OC)c1` [F, 2-(2-methoxyethoxy)ethyl 3-(3,4,5-trimethoxybenzoyl)propiolate], the ED50 in data set [1] amounted to 2.9 mg/kg. Moreover, the LD50 in data set [2] (setting [3]) is more than 5000 mg/kg.
On to `O=C(O)C#CC(=O)c1ccc2c(c1)OCO2` [A, 3-[3,4-(Methylenedioxy)benzoyl]propiolic acid], for which the ED50 in data set [1] was determined as 1.2 mg/kg; in the data set on gastric acid secretion, 42 mg/kg. Moreover, the LD50 in data set [2] (setting [3]) lay within 625 to 1250 mg/kg.
For the molecule `CCOC(C)OCC#CC(=O)c1ccc(OC)c(OC)c1OC` (stereo not shown) [W, 4-(1-ethoxyethoxy)-1-(2,3,4-trimethoxyphenyl)-2-butyn-1-one], the ED50 came out at 0.8 mg/kg in data set [1] and 9 mg/kg with gastric acid secretion. For the same molecule, in data set [2] (setting [3]), the LD50 is 312 to 625 mg/kg.
